The source of these data is ChEMBL document CHEMBL1125940 (Bioorg Med Chem Lett, 1991).

Positions of bridges follow the written chain, without caps; N, C: chain ends. Residues, ends and D or L forms follow the SMILES beside them.

For assay [1], the target named is T1, Endothelin-1 receptor (Rattus norvegicus, UniProt P26684).
T1 sequence (P26684 whole entry): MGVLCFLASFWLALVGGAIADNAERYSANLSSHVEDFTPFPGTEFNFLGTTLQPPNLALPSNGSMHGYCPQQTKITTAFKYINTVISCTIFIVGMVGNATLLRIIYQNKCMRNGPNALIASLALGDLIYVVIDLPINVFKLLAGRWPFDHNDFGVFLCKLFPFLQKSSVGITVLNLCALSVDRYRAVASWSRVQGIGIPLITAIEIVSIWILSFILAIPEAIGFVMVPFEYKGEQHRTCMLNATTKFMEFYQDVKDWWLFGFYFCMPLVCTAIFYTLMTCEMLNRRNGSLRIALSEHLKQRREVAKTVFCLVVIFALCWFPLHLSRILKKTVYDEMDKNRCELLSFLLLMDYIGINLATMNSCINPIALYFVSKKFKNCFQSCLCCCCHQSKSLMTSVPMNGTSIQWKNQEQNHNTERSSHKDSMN
The assay is described as follows: Binding affinity towards Endothelin A receptor in A10 rat thoracic aorta smooth muscle cells using [125I]ET1 as radioligand (Exp 2).

In assay [2] the target is T1, Endothelin-1 receptor. In words: Binding affinity towards Endothelin A receptor in A10 rat thoracic aorta smooth muscle cells using [125I]ET1 as radioligand (Exp 1).
For assay [3], the species on record is Oryctolagus cuniculus. In words: Effective concentration required for stimulation of vascular contraction tested in vitro using carotid arteries of New Zealand white rabbits. The format is functional.
Assay [4] has as its target T1, Endothelin-1 receptor. In words: Binding affinity towards Endothelin A receptor in A10 rat thoracic aorta smooth muscle cells using [125I]ET1 as radioligand.

With `CC[C@H](C)[C@H](NC(=O)[C@H](C)NC(=O)[C@H](CC(C)C)NC(=O)[C@H](Cc1cnc[nH]1)NC(=O)[C@@H]1CSSC[C@H](N)C(=O)N[C@@H](CO)C(=O)N[C@H]2CSSC[C@H](NC(=O)[C@H](CCC(=O)O)NC(=O)[C@H](CCCCN)NC(=O)[C@H](CC(=O)O)NC(=O)[C@H](CCSC)NC(=O)[C@H](CC(C)C)NC(=O)[C@H](CO)NC(=O)[C@H](CO)NC2=O)C(=O)N[C@@H](C(C)C)C(=O)N[C@@H](Cc2ccc(O)cc2)C(=O)N[C@@H](Cc2ccccc2)C(=O)N1)C(=O)N[C@H](C(=O)N[C@@H](Cc1c[nH]c2ccccc12)C(=O)O)[C@@H](C)CC` (H-CSCSSLMDKECVYFCHLAIIW-OH; disulfide 1-15, 3-11), the values for the Kd in assay [1] and in assay [2] were 80 nM and 0.7 nM, respectively.
The corresponding values for `CC[C@H](C)[C@H](NC(=O)[C@H](CC(=O)O)NC(=O)[C@H](CC(C)C)NC(=O)[C@H](Cc1cnc[nH]1)NC(=O)[C@@H]1CSSC[C@H](N)C(=O)N[C@@H](CO)C(=O)N[C@H]2CSSC[C@H](NC(=O)[C@H](CCC(=O)O)NC(=O)[C@H](CCCCN)NC(=O)[C@H](CC(=O)O)NC(=O)[C@H](CCSC)NC(=O)[C@H](CC(C)C)NC(=O)[C@H](CO)NC(=O)[C@H](CO)NC2=O)C(=O)N[C@@H](C)C(=O)N[C@@H](Cc2ccc(O)cc2)C(=O)N[C@@H](Cc2ccccc2)C(=O)N1)C(=O)N[C@H](C(=O)N[C@@H](Cc1c[nH]c2ccccc12)C(=O)O)[C@@H](C)CC` (H-CSCSSLMDKECAYFCHLDIIW-OH; disulfide 1-15, 3-11) are 1390 nM and 31 nM.
Regarding `CC[C@H](C)[C@H](NC(=O)[C@H](CC(=O)O)NC(=O)[C@H](CC(C)C)NC(=O)[C@H](Cc1cnc[nH]1)NC(=O)[C@@H]1CSSC[C@H](N)C(=O)N[C@@H](C)C(=O)N[C@H]2CSSC[C@H](NC(=O)[C@H](CCC(=O)O)NC(=O)[C@H](CCCCN)NC(=O)[C@H](CC(=O)O)NC(=O)[C@H](CCSC)NC(=O)[C@H](CC(C)C)NC(=O)[C@H](CO)NC(=O)[C@H](CO)NC2=O)C(=O)N[C@@H](C(C)C)C(=O)N[C@@H](Cc2ccc(O)cc2)C(=O)N[C@@H](Cc2ccccc2)C(=O)N1)C(=O)N[C@H](C(=O)N[C@@H](Cc1c[nH]c2ccccc12)C(=O)O)[C@@H](C)CC` (H-CACSSLMDKECVYFCHLDIIW-OH; disulfide 1-15, 3-11), the Kd was found to be 409 nM in assay [1] and 9.6 nM in assay [2].
As for `CC[C@H](C)[C@H](NC(=O)[C@H](CC(=O)O)NC(=O)[C@H](CC(C)C)NC(=O)[C@H](C)NC(=O)[C@@H]1CSSC[C@H](N)C(=O)N[C@@H](CO)C(=O)N[C@H]2CSSC[C@H](NC(=O)[C@H](CCC(=O)O)NC(=O)[C@H](CCCCN)NC(=O)[C@H](CC(=O)O)NC(=O)[C@H](CCSC)NC(=O)[C@H](CC(C)C)NC(=O)[C@H](CO)NC(=O)[C@H](CO)NC2=O)C(=O)N[C@@H](C(C)C)C(=O)N[C@@H](Cc2ccc(O)cc2)C(=O)N[C@@H](Cc2ccccc2)C(=O)N1)C(=O)N[C@H](C(=O)N[C@@H](Cc1c[nH]c2ccccc12)C(=O)O)[C@@H](C)CC` (H-CSCSSLMDKECVYFCALDIIW-OH; disulfide 1-15, 3-11), the EC50 in assay [3] was found to be 31 nM. The same compound yielded a Kd in assay [4] of 51.9 nM.
As to `CC[C@H](C)[C@H](NC(=O)[C@H](C)NC(=O)[C@H](CC(=O)O)NC(=O)[C@H](CC(C)C)NC(=O)[C@H](Cc1cnc[nH]1)NC(=O)[C@@H]1CSSC[C@H](N)C(=O)N[C@@H](CO)C(=O)N[C@H]2CSSC[C@H](NC(=O)[C@H](CCC(=O)O)NC(=O)[C@H](CCCCN)NC(=O)[C@H](CC(=O)O)NC(=O)[C@H](CCSC)NC(=O)[C@H](CC(C)C)NC(=O)[C@H](CO)NC(=O)[C@H](CO)NC2=O)C(=O)N[C@@H](C(C)C)C(=O)N[C@@H](Cc2ccc(O)cc2)C(=O)N[C@@H](Cc2ccccc2)C(=O)N1)C(=O)N[C@@H](Cc1c[nH]c2ccccc12)C(=O)O` (H-CSCSSLMDKECVYFCHLDAIW-OH; disulfide 1-15, 3-11), the Kd in assay [1] was determined as 3120 nM; in assay [2], 96 nM.
